Reference: PMC7414322 (Bioorganic & Medicinal Chemistry Letters, 2020)
Like-named read-outs stand apart in the source and are kept apart here.

What was measured:
hERG = hERG (Homo sapiens, UniProt Q12809)
[1] = mouse, microsomes
[2] = human, microsomes
in vivo = conditions: rat, po, 5 mg/kg

Chain of hERG (Q12809 whole entry): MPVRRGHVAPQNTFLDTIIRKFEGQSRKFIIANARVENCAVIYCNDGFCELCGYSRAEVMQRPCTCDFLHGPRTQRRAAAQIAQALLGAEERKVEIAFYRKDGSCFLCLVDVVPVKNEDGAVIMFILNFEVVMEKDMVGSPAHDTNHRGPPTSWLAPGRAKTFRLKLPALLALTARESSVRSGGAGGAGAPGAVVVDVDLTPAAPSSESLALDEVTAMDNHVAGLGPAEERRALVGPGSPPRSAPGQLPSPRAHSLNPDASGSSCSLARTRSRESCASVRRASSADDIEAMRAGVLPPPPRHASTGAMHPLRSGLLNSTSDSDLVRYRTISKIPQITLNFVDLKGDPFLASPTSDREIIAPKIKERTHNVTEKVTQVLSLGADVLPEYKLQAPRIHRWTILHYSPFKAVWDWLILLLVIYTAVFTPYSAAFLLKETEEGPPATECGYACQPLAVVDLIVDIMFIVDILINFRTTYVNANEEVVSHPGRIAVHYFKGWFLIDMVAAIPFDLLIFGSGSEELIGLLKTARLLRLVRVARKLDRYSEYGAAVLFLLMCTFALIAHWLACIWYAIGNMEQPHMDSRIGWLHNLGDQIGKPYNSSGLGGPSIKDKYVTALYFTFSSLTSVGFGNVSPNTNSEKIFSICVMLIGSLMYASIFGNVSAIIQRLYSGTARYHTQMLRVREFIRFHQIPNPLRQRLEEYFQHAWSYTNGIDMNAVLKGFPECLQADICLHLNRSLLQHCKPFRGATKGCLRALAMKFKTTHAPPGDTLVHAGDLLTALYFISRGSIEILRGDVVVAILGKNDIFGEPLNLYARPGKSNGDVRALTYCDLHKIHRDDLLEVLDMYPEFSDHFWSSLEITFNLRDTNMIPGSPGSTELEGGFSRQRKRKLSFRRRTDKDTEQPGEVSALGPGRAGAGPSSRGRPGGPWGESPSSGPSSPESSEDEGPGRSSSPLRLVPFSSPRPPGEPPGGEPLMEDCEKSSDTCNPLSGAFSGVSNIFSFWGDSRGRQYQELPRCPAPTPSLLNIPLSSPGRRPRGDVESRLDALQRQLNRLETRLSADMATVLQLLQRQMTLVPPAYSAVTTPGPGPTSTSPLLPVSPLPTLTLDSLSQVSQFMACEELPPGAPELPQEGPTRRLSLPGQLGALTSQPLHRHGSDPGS

Structure (SMILES): COc1cccc(CNc2ccc3ncnc(Nc4ccc(Br)cc4)c3c2)c1 [Compound 6]
- Inhibitory effect on MERS-CoV infection, in words (MERS-CoV): maintained the potency

Structure (SMILES): COc1cccc(CNc2ccc3ncnc(Nc4ccc(F)cc4)c3c2)c1 [Compound 7]
- Inhibitory effect on MERS-CoV infection, in words (MERS-CoV): reduced potency compared to 1

Structure (SMILES): COc1cccc(CNc2ccc3ncnc(Nc4cccc(Cl)c4)c3c2)c1 [Compound 8]
- Inhibitory effect on MERS-CoV infection, in words (MERS-CoV): reduced potency compared to 1

Structure (SMILES): COc1cccc(CNc2ccc3ncnc(Nc4ccc(C#N)cc4)c3c2)c1 [Compound 9]
- Inhibitory effect on MERS-CoV infection, in words (MERS-CoV): reduced potency compared to 1

Structure (SMILES): COc1cccc(CNc2ccc3ncnc(Nc4ccc(C(F)(F)F)cc4)c3c2)c1 [Compound 11]
- Inhibitory effect on MERS-CoV infection, in words (MERS-CoV): slightly improve the potency

Structure (SMILES): N#Cc1ccccc1CNc1ccc2ncnc(Nc3ccc(F)c(Cl)c3)c2c1 [Compound 19]
- Inhibitory effect on MERS-CoV infection, in words (MERS-CoV): no inhibitory effect

Structure (SMILES): N#Cc1cccc(CNc2ccc3ncnc(Nc4ccc(F)c(Cl)c4)c3c2)c1 [Compound 20]
- hERG binding, in words (hERG): no hERG binding
- Microsomal stability, in words [1]: good microsomal stability
- Microsomal stability, in words [2]: good microsomal stability
- Cytotoxicity, in words (Vero): no cytotoxicity
- Cytotoxicity Vero (Vero; African green monkey): >100 µM
- Cytotoxicity, in words (HFL-1): no cytotoxicity
- Cytotoxicity HFL-1 (HFL-1; human): >100 µM
- Cytotoxicity, in words (L929): no cytotoxicity
- Cytotoxicity L929 (L929; mouse): >100 µM
- Cytotoxicity, in words (NIH 3T3): no cytotoxicity
- Cytotoxicity NIH 3T3 (NIH 3T3; mouse): >100 µM
- Cytotoxicity, in words (CHO-K1): no cytotoxicity
- Cytotoxicity CHO-K1 (CHO-K1; Chinese hamster): >100 µM
- Cmax (in vivo): 200 ng/mL

Structure (SMILES): Fc1ccc(Nc2ncnc3ccc(NC4CCCCC4)cc23)cc1Cl [Compound 25]
- Inhibitory effect on MERS-CoV infection, in words (MERS-CoV): little inhibitory effects

Structure (SMILES): N#Cc1cccc(CNc2cc3c(Nc4ccc(F)c(Cl)c4)ncnc3cc2O)c1 [Compound 30]
- Inhibitory effect on MERS-CoV infection, in words (MERS-CoV): no inhibitory effects

Structure (SMILES): N#Cc1ccccc1CNc1ccc2ncnc(Nc3ccc(C(F)(F)F)cc3)c2c1 [Compound 31]
- Inhibitory effect on MERS-CoV infection, in words (MERS-CoV): decreased potency
